Results published in patent US4508730A, “1,7-Dihydro-pyrrolo[3,4-e][1,4]diazepin-2(3H)-one derivatives a process for preparing them and their use as anticonvulsant and anti-anxiety agents” (Gruppo Lepetit S.p.A., priority 1982, dated 1985).
Where a name gives a salt, the structure may show the parent alone.

Tests used:
[1] = antipentylenetetrazole bioassay in mice; assay type: in vivo; conditions: Mus musculus, 2 h; for responders at 100 mg/kg: sc, 100 mg/kg compound 30 minutes before fatal dose of pentylenetetrazole (140 mg/kg s.c.), read-out: protection against pentylenetetrazole (animals still alive two hours after administration); for ED50: ip, i.p., pentylenetetrazole 140 mg/kg s.c., read-out: ED50 (dose at which 50% of the treated animals are protected)
Procedure: To evaluate the anticonvulsant activity the compounds of the present invention have been submitted to the antipentylenetetrazole bioassay in mice. The experiments have been carried out by following essentially the methodology described by Berger in J. Pharm. Exptl. Ther. 104, 468, (1952). More particularly, a fatal dose of pentylenetetrazole (140 mg/kg s.c.) was administered to groups of ten mice each, treated, 30 minutes before the administration of the convulsant agent, with a selected dose (100 mg/kg) of the potential anticonvulsant compound. […] Since the animals of the control group died within 30 minutes, the effectiveness of the compounds tested was expressed as the number of animals of the group which were still alive two hours after the administration of pentylenetetrazole, out of the total number of animals of the group (10). In this experiment the compounds of examples 1,2,8, 9, 10, 11, 13, 14, 15, 16, and 17 were fully effective giving a 100% protection against pentylenetetrazole.

benzodiazepine receptors = experiment: "benzodiazepine receptors" test, displacement of ^3 H-Diazepam from rat brain receptors; assay type: binding; conditions: ^3 H-Diazepam displacement, read-out: In vitro Ki
Procedure: The anti-anxiety activity of the compounds of the present invention was shown by submitting the compounds to the "benzodiazepine receptors" test.
These experiments were carried out by following the method described by H. Mohler and T. Okada in Life Sciences, Vol. 20, 2101-2110 (1977).

GABA receptor = GABA receptor assay, displacement of ^3 H-GABA; assay type: binding; conditions: for IC50: ^3 H-GABA displacement; for displacement of ^3 H-GABA from its receptors: at micromolar concentrations
Procedure: Furthermore some of the compounds of the present invention have been tested in the GABA receptor assay. In this test which was carried out by following the methodology described by M. Herschel and R. J. Baldessarini in Life Sciences, 24, 1849-1854, (1979), the compounds of examples 3 and 15 resulted to be active in displacing more than 50% of ^3 H-GABA from its receptors at micromolar concentrations. […] (As for the GABA's mediating effect of the anxiolytic action of benzodiazepines, see for instance S. J. Enna--Biochemical Pharmacology--30, No. 9, 907-913, (1981)).

Cc1c2c(cn1C)N(C)C(=O)C(OC(=O)c1ccccc1)N=C2c1ccccc1Cl (centres unmarked) [Example 1, 5-(2-chlorophenyl)-1,7-dihydro-1,6,7-trimethyl-3-(phenylcarbonyloxy)-pyrrolo[3,4-e][1,4]diazepin-2(3H)-one]
responders at 100 mg/kg [1]: 100% | Ki (benzodiazepine receptors): 6.7 nM

Cc1c2c(cn1C)N(C)C(=O)C(OC(=O)C(C)(C)C)N=C2c1ccccc1Cl (centres unmarked) [Example 2, 5-(2-chlorophenyl)-1,7-dihydro-1,6,7-trimethyl-3-(2,2-dimethylpropanoyloxy)-pyrrolo[3,4-e][1,4]diazepin-2(3H)-one]
responders at 100 mg/kg [1]: 100% | Ki (benzodiazepine receptors): 17.2 nM

Cc1ccccc1C(=O)OC1N=C(c2ccccc2Cl)c2c(cn(C)c2C)N(C)C1=O (centres unmarked) [Example 3]
Ki (benzodiazepine receptors): 1.7 nM | IC50 (GABA receptor): 35000 nM | displacement of ^3 H-GABA from its receptors (GABA receptor): more than 50%

CCCC(=O)OC1N=C(c2ccccc2)c2c(cn(C)c2C)NC1=O (centres unmarked) [Example 8, 1,7-dihydro-6,7-dimethyl-3-[(1-oxobutyl)oxy]-5-phenyl-pyrrolo[3,4-e][1,4]diazepin-2(3H)-one]
responders at 100 mg/kg [1]: 100%

Cc1c2c(cn1C)N(C)C(=O)C(OC(=O)C(C)C)N=C2c1ccccc1Cl (centres unmarked) [Example 9, 5-(2-chlorophenyl)-1,7-dihydro-1,6,7-trimethyl-3-[(2-methyl-1-oxopropyl)oxy]-pyrrolo[3,4-e][1,4]diazepin-2(3H)-one]
ED50 [1]: 5 mg/kg | responders at 100 mg/kg [1]: 100% | Ki (benzodiazepine receptors): 4.1 nM

COc1ccc(C(=O)OC2N=C(c3ccccc3Cl)c3c(cn(C)c3C)N(C)C2=O)cc1 (centres unmarked) [Example 10]
responders at 100 mg/kg [1]: 100% | Ki (benzodiazepine receptors): 8.1 nM

Cc1c2c(cn1C)N(C)C(=O)C(OC(=O)c1ccc(-c3ccccc3)cc1)N=C2c1ccccc1Cl (centres unmarked) [Example 11]
responders at 100 mg/kg [1]: 100%

Cc1c2c(cn1C)N(C)C(=O)C(OC(=O)CCC(=O)O)N=C2c1ccccc1Cl (centres unmarked) [Example 13, 1,4-butandioic acid 1-[5-(2-chlorophenyl)-1,3,7-trihydro-1,6,7-trimethyl-2-oxo-pyrrolo[3,4-e][1,4]diazepinyl]ester]
responders at 100 mg/kg [1]: 100%

Cc1c2c(cn1C)NC(=O)C(OC(=O)CCC(=O)O)N=C2c1ccccc1 (centres unmarked) [Example 14, 1,4-butandioic acid 1-[1,3,7-trihydro-6,7-dimethyl-2-oxo-5-phenyl-pyrrol[3,4-e][1,4]diazepinyl]ester]
responders at 100 mg/kg [1]: 100%

CCOC(=O)CCCNC(=O)CCC(=O)OC1N=C(c2ccccc2)c2c(cn(C)c2C)NC1=O (centres unmarked) [Example 15, hydrochloride]
responders at 100 mg/kg [1]: 100% | Ki (benzodiazepine receptors): 38.9 nM | IC50 (GABA receptor): 3000 nM | displacement of ^3 H-GABA from its receptors (GABA receptor): more than 50%

CCOC1N=C(c2ccccc2Cl)c2c(cn(C)c2C)N(C)C1=O (centres unmarked) [Example 16, 5-(2-chlorophenyl)-3-ethoxy-1,7-dihydro-1,6,7-trimethyl-pyrrolo[3,4-e][1,4]diazepin-2(3H)-one hydrochloride hydrate]
responders at 100 mg/kg [1]: 100% | Ki (benzodiazepine receptors): 24.6 nM

COC1N=C(c2ccccc2Cl)c2c(cn(C)c2C)N(C)C1=O.Cl.O (centres unmarked) [Example 17, 5-(2-chlorophenyl)-1,7-dihydro-3-methoxy-1,6,7-trimethyl-pyrrolo[3,4-e][1,4]diazepin-2(3H)-one hydrochloride hydrate]
ED50 [1]: 8 mg/kg | responders at 100 mg/kg [1]: 100% | Ki (benzodiazepine receptors): 23 nM

CCOC(=O)CCCNC1N=C(c2ccccc2Cl)c2c(cn(C)c2C)N(C)C1=O (centres unmarked) [Example 18, 5-(2-chlorophenyl)-3-[[3-(ethoxycarbonyl)propyl]amino]-1,7-dihydro-1,6,7-trimethyl-pyrrolo[3,4-e][1,4]diazepin-2(3H)-one]
Ki (benzodiazepine receptors): 46.1 nM
